Data: US12642795B2, “MRGPRX2 antagonist for the treatment of pseudo allergic reactions” (The University of Hong Kong, priority 2021, dated 2026)

What was measured:
[1] = system: C57/BL/6N mice; experiment: In-vivo systemic anaphylaxis mice model (C48/80 induced); design: species or system mouse; settings: 5 mg/kg intraperitoneally, C48/80 8 mg/kg intraperitoneally
Experimental: Animals (C57/BL/6N aged 6-8 weeks old, n=6-8/group) were transported to the procedure area the day before injections to minimize stress. The antagonists (GE0117, GE1109, or GE1111) or vehicle was injected intraperitoneally, and mice were kept in the cage for 30 minutes. After 30 minutes of saline (negative control), 8 mg/kg of C48/80 was injected intraperitoneally. The volume of intraperitoneal injection was 10 ml/kg body weight as per AAALAC guidelines. The injection site was swabbed with cotton soaked in 70% alcohol, and the mouse was placed in a separate cage as one mouse per cage. Body core temperature was measured before (basal) and after the injections with an IR non-contact thermometer for one hour. Also, mice were monitored for anaphylaxis symptoms/severity and scored from 0-5 for 1 h or until death following C48/80 injection, whichever was first. Briefly, the scoring system was followed as 0, no symptoms; 1, scratching and rubbing around the nose and head; 2, puffiness around the eyes and mouth, diarrhea, pilar erecti, reduced activity, and/or decreased activity with an increased respiratory rate; 3, wheezing, labored respiration, and cyanosis around the mouth and the tail; 4, no activity after prodding or tremor and convulsion; 5, death. The body core temperature and anaphylaxis score were plotted using Graph Pad Prism.

[2] = biological target: T1, MRGPRX2 (Homo sapiens, UniProt Q96LB1); experiment: MRGPRX2 activation assay (PRESTO-Tango assay); format: cell-based; settings: MRGPRX2-Tango transfected HTLA cells, followed by EC90 concentration (10 μM) of C48/80
T1 construct: expressed in transfected cells; host or cells: HTLA cells
T1 sequence (Q96LB1 1-330): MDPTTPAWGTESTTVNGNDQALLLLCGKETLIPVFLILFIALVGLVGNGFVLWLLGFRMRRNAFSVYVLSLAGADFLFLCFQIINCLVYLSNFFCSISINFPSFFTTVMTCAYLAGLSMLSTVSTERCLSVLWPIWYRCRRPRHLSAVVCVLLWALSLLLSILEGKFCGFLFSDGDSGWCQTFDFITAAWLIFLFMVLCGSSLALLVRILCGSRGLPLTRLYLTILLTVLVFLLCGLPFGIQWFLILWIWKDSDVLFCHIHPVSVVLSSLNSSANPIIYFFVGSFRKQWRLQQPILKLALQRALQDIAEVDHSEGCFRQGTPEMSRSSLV
Experimental: On day 1 of the experiment, HTLA cells were seeded at 1×10^6 cells per 100 mm cell culture dish for transfection. On the following day (day 2), HTLA cells were transfected with Tango MRGPRX2 DNA using the Lipofectamine transfection reagent (Thermo Fischer Scientific). On day 3, Tango MRGPRX2 transfected cells were transferred into 96-well white clear-bottom cell culture plates at a density of 2×10^4 cells/well/80 μL (PerkinElmer Life Science).

[3] = system: Human LAD-2 MCs; experiment: Intracellular Ca2+ flux assay (Fluo-4 NW); format: cell-based; settings: LAD2 MCs; for efficacy in Ca2+ flux reduction at 12.5 μM, 25 μM and 50 μM: ****P<0.0001 vs C48/80; for reduction of C48/80 induced Ca2+ flux: C48/80 EC90 concentration
Experimental: The intracellular Ca^2+ flux was measured in human LAD-2 MCs by using the Fluo-4 NW calcium assay kit and the protocol according to the manufacturer (Molecular Probe, Invitrogen, USA). Briefly, LAD-2 cells were plated in a 96-well black well plate (SPL Life Sciences) at a density of 1×10^5 cells/well/40 μL in assay buffer and incubated for 1 h at 37° C. incubators. After 1 h, 40 μL of the 2× dye loading solution and antagonist or buffer was added to the cells (10 μL of 10× stock). […] After one hour of incubation, a graded concentration of agonist or buffer was added to the cells (10 μL of 10× stock). The fluorescence was measured at an excitation wavelength of 494 nm and an emission wavelength of 516 nm using Victor 4× plate reader (PerkinElmer) for 150 seconds. The ΔF was calculated by […] and plotted by using Graph Pad Prism.

[4] = system: human LAD2 MCs; experiment: Monocyte chemoattractant protein-1 (MCP-1) measurement by ELISA; format: cell-based; settings: 12.5 μM, 25 μM and 50 μM; compared to C48/80 control
Experimental: MCP-1 and PGD2 were measured from human LAD2 MCs via individual ELISA kits. Briefly, MCs were seeded at a density of 1.5×10^5 cells/80 μL/well in a 96 well plate in complete Stem-Pro 34 media. […] The cells were centrifuged to collect the supernatant and stored at −80° C. until analyzed. […] After 24 hours, cells were centrifuged to discard the media and lysed with 0.1M potassium phosphate via sonication. The supernatant of cell lysate was collected and stored at −80° C. until analyzed. MCP-1 (Abcam, Cambridge, UK) and PGD2 (Cayman Chemicals, MI, USA) were quantified by ELISA according to manufacturer instruction.

[5] = system: C57/BL/6N mice; experiment: In-vivo local anaphylaxis/pseudo allergic mice model (C48/80 induced); design: species or system mouse; settings: 5 mg/kg intraperitoneally, vs C48/80 mice; for increase in paw thickness: 15 min after C48/80 (30 μg/ml) in paw; for Evans blue dye extravasation: 15 min after C48/80 (30 μg/ml)
Source text: Young adult male mice (C57/BL/6N aged 6-8 weeks old, n=6/group) were used to measure the local anaphylaxis activity by measuring Evans blue tissue extravasation in paw and ear tissue. The animal experiments were approved by the Committee on the Use of Live Animals in Teaching and Research (CULATR) (Animal ethical approval number CULATR 5125-19). Mice were anesthetized via intraperitoneal injection of ketamine and xylazine, and paw thickness was measure using a Vernier caliper. The antagonists (GE0117, GE1109, and GE1111) were injected at a dose of 5 mg/kg body weight via intraperitoneal injection followed by a tail vein injection of 50 μL 12.5% Evans blue in saline (irrespective of the bodyweight). After thirty minutes, C48/80 (10 μL of 30 μg/ml) was injected into one paw and ear, while saline was injected into the other paw and ear as a negative control. After fifteen minutes, the paw and ear tissue were photographed, and the paw thicknesses were measured again to calculate % increase in paw thickness. Mice were euthanized by cervical dislocation under anesthesia, and the collected paw and ear tissues were dried at 50° C. for 24 hours and weighed separately. Evans blue was extracted with formamide (500 μL/tissue) by incubating at 50° C. for 24 h. The supernatant was aliquoted into 96-well plates (200 μL/well, duplicate), and OD was measure at 595 nm using a Victor 4× plate reader (PerkinElmer). The paw edema/inflammation was measured as % increase in paw thickness=

[6] = system: Human LAD-2 mast cells; experiment: β-Hexosaminidase MCs degranulation assay; format: cell-based; settings: LAD2, LAD-2 MCs, followed by EC90 concentration (10 μM) of C48/80
Experimental: Human LAD-2 mast cells were seeded at 2×10^4 cells/well/80 μL in a 96-well plate. A 10× stock of antagonist were prepared in HEPES buffer (HEPES (10 mM), NaCl (137 mM), KCl (2.7 mM), Na2HPO4·7H2O (0.4 mM), glucose (5.6 mM), CaCl2·2H2O (1.8 mM), MgSO4·7H2O (1.3 mM), bovine serum albumin (0.04%), pH 7.4). […] The plate was spun at 450×g for 5 minutes at room temperature, and 50 μL of supernatant was aliquoted to a new 96 well plate. The cells were lysed with 100 μL of 0.1% Triton X-100, and 50 μL of lysate was aliquoted to another 96 well plates. A 1.3 mg/ml solution of the substrate PNAG (4-Nitrophenyl N-acetyl-β-D-glucosaminide) was prepared in 0.1 M citric acid/sodium citrate buffer (pH 4.5, 24.087 g/L Sodium Citrate dihydrate, and 3.471 g/L Citric Acid). 50 μL of PNAG was added to each well of supernatant and lysate, and cells were incubated for 90 min at 37° C. (without CO2). The reaction was stopped by adding 50 μL of 0.4 M Glycine buffer. The extent of yellow color was measured at 405 nm using Victor 4× plate reader (PerkinElmer), and percentage MCs degranulation (β-hexosaminidase release) was calculated by using the formula; % MCs degranulation: […]

COC(=O)c1ccc2cc(-c3cc4c5c(cccc5c3)C(=O)N(C)C4=O)c(NC(N)=O)cc2c1 [GE0117]
C48/80 induced body temperature change at 35 minutes [1]: significantly reversed the body temperature change
IC50 [2]: 9.79 µM
efficacy in Ca2+ flux reduction at 12.5 μM, 25 μM and 50 μM [3]: higher efficacy at all three concentrations
reduction of C48/80 induced Ca2+ flux [3]: significant concentration-dependent reduction
inhibition of C48/80 induced MCP-1 release [4]: significantly inhibits the release of MCP-1 at all the tested concentrations
increase in paw thickness [5]: significantly (***P<0.001) attenuated
Evans blue dye extravasation [5]: significantly (***P<0.001) attenuated
IC50 [6]: 20.8 µM

COC(=O)c1ccc2cc(-c3cc4c5c(cccc5c3)C(=O)N(C)C4=O)c(C(=O)OC)cc2c1 [GE0118]
IC50 [2]: 8.91 µM
reduction of C48/80 induced Ca2+ flux [3]: significant concentration-dependent reduction
IC50 [6]: 18.2 µM

COC(=O)c1cc2cc(NC(N)=O)ccc2cc1-c1cc2c3c(cccc3c1)C(=O)N(C)C2=O [GE0119]
IC50 [2]: 20.1 µM
reduction of C48/80 induced Ca2+ flux [3]: significant concentration-dependent reduction
IC50 [6]: 25.5 µM

COC(=O)c1ccc2cc(-c3cc4c5c(c(O)ccc5c3)C(C)C(C=O)=C4)c(C(=O)OC)cc2c1 (stereo not drawn) [GE1110]
IC50 [2]: 8.93 µM
efficacy in Ca2+ flux reduction at 12.5 μM, 25 μM and 50 μM [3]: higher efficacy at all three concentrations
reduction of C48/80 induced Ca2+ flux [3]: significant concentration-dependent reduction
IC50 [6]: 23.4 µM

O=c1c(-c2ccc(O)cc2)coc2cc(O)cc(O)c12 [genistein, reference compound]
C48/80 induced body temperature change at 35 minutes [1]: significantly reversed the body temperature change
IC50 [2]: 31.7 µM
reduction of C48/80 induced Ca2+ flux [3]: significant (**P<0.001) Ca^2+ flux reduction at 50 μM concentration only
increase in paw thickness [5]: significant (*P<0.05) antagonizing activity
Evans blue dye extravasation [5]: significant (*P<0.05) antagonizing activity
IC50 [6]: 30.3 µM
